# Measurements from patent US10317409B2, “Glycosylation site-specific antibodies and anti-cancer compounds” (Detroit R&D, Inc., priority 2013, dated 2019).
# “Also recorded” adds a separate entry of the source.
# Legend:
# [1] = tested on: O-GlcNAcylated c-myc in MCF-7 cells; test: Western blot of O-GlcNAcylated c-myc levels in MCF-7 cells; format: cell-based; details: for O-GlcNAcylated c-myc level: MCF-7, 4 hr
# Protocol: MCF-7 breast cancer cells were treated for 24 hr with 1% DMSO, with an O-GlcNAcase inhibitor, streptozotocin (STZ), with N6-methyladenosine 5′-monophosphate (an O-GlcNAcase inhibitor discovered through by screening with the pseudofluorescent substrate 4-methylumbelliferol (4-MU)-GlcNAc (7)) or with media (control) (FIG. 5).
# (§1) O-GlcNAcase inhibitors, which increased O-GlcNAcylation levels of proteins by preventing cleavage of an O-GlcNAc moiety of Ser or Thr residues, were identified using the antibodies of the present invention. MCF-7 breast cancer cells (FIG. 6. Panel A, Lanes 1-4) and MCF10A normal breast cells (FIG. 6. Panel A, Lanes 5-8) were treated for 4 hr with 1% DMSO (FIG. 6, Panel A, Lanes 1 and 5), the O-GlcNAcase inhibitors acetazolamide (FIG. 6, Panel A, Lanes 2 and 6) and N6-methyladenosine 5′-monophosphate (FIG. 6, Panel A, Lanes […] and 7) or media (control) (FIG. 6, Panel A, Lanes 4 and 8). Western blot analysis (8-16% gel) was carried out with cell lysates (20 μg/lane) using antibodies for O-GlcNAcylated c-myc (Peptide #1-G, 5,000-fold diluted).
# (§2) Western blot analysis was carried out with 10% gel electrophoresis using nuclear lysates obtained from MCF-7 cells with antibodies for O-GlcNAcylated c-myc (Peptide #2-0). […] There was no increase in unmodified c-myc protein after ketoconazole treatment as verified with antibodies for unmodified c-myc (Peptide #2-N) by Western blot analysis.
# MCF-7 cells were treated for 4 hr with 1% DMSO (negative control) or 2 mM ketoconazole in DMSO and an O-GlcNAcylated c-myc band was detected using a second antibody for O-GlcNAcylated c-myc (Peptide #1-G).
# [2] = tested on: O-GlcNAcylated p53 in MCF-7 cells; test: Western blot of O-GlcNAcylated p53 levels in MCF-7 cells; format: cell-based; details: MCF-7, 24 hr, 2 mM, cytosol-containing supernatants, FIG. 7B
# Protocol: MCF-7 cells were grown for 24 hr with treatment of 1% DMSO (negative control) or 2 mM STZ or acetazolamide dissolved in DMSO or 2 mM N6-methyladenosine 5′-monophosphate dissolved in media. The cells were harvested and cytosol-containing supernatants were obtained.
# [3] = tested on: O-GlcNAcylated c-myc in MCF10A cells; test: Western blot of O-GlcNAcylated c-myc levels in MCF10A cells; format: cell-based; details: 4 hr treatment, cell lysates, FIG. 6A
# Protocol: as §1
# [4] = tested on: Thr-58-O-GlcNAcylated c-myc in PANC-1 cells; test: Thr-58-O-GlcNAcylated c-myc expression in PANC-1 cells; format: cell-based; details: PANC-1, after ketoconazole treatment
# [5] = tested on: unmodified c-myc in MCF-7 cells; test: Western blot of unmodified c-myc in MCF-7 cells; format: cell-based; details: MCF-7, 4 hr, 2 mM, antibody Peptide #2-N
# Protocol: as §2
# [6] = tested on: MCF-7 breast cancer cells; test: Cell proliferation; format: cell-based
# Protocol: (§3) Cell proliferation assays were carried out after seeding 3,000-5,000 cells in a 96-well plate with and without treatment of 50 μM ketoconazole dissolved in DMSO (final concentration, 1%) for 72 hr (FIG. 8, Panel A). The cell number was counted after staining the cells with 3-(4,5-dimethylthiazol-2-yl)2,5-diphenyl-tetrazolium bromide (MTT).
# [7] = tested on: MCF10CA1A breast cancer cells; test: QCM ECMatrix cell invasion assay; format: cell-based; details: 100 μM, 72 hr
# Protocol: (§4) Cell invasiveness of SW480 and HT29 human colon adenocarcinoma cells and MCF10CA1A breast cancer cells with and without 72 hr treatment with 100 μM ketoconazole was studied in 24-well plates using the QCM ECMatrix cell invasion assay kit (EMD Millipore).
# [8] = tested on: SW480 colon cancer cells; test: QCM ECMatrix cell invasion assay; format: cell-based, human; details: SW480, 100 μM, 72 hr
# Protocol: as §4
# [9] = tested on: HT29 colon cancer cells; test: QCM ECMatrix cell invasion assay; format: cell-based, human; details: HT29, 100 μM, 72 hr
# Protocol: as §4
# [10] = tested on: MCF-7 and MCF10A cells; test: Lactate dehydrogenase (LDH) cytotoxicity assay; format: cell-based; details: 2 mM, 4 hr, LDH release
# Protocol: Increased O-GlcNAcylated c-myc levels in MCF-7 cells induced cell death. MCF-7 tumor cell death after 2 mM ketoconazole treatment was compared with MCF10A normal cell death by LDH cytotoxicity assay. After treatment of cells for 4 hr, extracellular media and Triton X-100 solubilized cells were obtained and oxidation of NADH to NAD+ in both fractions was monitored for 2 min at a 340 nm to obtain total (media+cells) LDH release.
# [11] = tested on: H1437 lung cancer cells; test: Cell proliferation assay (MTT); format: cell-based; details: Homo sapiens, NCI-H1437, H1437, 50 μM for 72 hr
# Protocol: as §3
# [12] = tested on: Mia Paca-2 pancreatic cancer cells; test: Cell proliferation assay (MTT); format: cell-based; details: Homo sapiens, Mia Paca-2, 50 μM for 72 hr
# Protocol: as §3
# [13] = tested on: PANC1 cells; test: Cell proliferation assay (MTT); format: cell-based; details: PANC1, same treatments, 72 hr
# Protocol: as §3
# [14] = tested on: A549 lung cancer cells; test: Cell proliferation assay (MTT); format: cell-based; details: Homo sapiens, A549, 50 μM for 72 hr
# Protocol: as §3
# [15] = tested on: SW480 colon cancer cells; test: Cell proliferation assay (MTT); format: cell-based, human
# From the text: (§5) […] The cell number was counted after staining the cells with 3-(4,5-dimethylthiazol-2-yl)2,5-diphenyl-tetrazolium bromide (MTT).
# [16] = tested on: HT29 colon cancer cells; test: Cell proliferation assay (MTT); format: cell-based, human
# From the text: as §5
# [17] = tested on: SW480 colon cancer cells; test: Wound healing assay (cell migration); format: cell-based, human; details: SW480, 100 μM
# Protocol: (§6) Wound healing assays were also carried out to verify inhibition of cell migration after ketoconazole treatment.
# [18] = tested on: HT29 colon cancer cells; test: Wound healing assay (cell migration); format: cell-based, human; details: HT29, 100 μM
# Protocol: as §6
# [19] = tested on: Mia Paca-2 pancreatic cancer cells; test: Wound healing assay (cell migration); format: cell-based; details: Mia Paca-2, 100 μM
# Protocol: as §6
# [20] = tested on: PANC1 pancreatic cancer cells; test: Wound healing assay (cell migration); format: cell-based; details: PANC1, 100 μM
# Protocol: as §6
# [21] = MCF-7, 24 hr treatment, 2 mM, nuclear lysates, FIG. 5
# [22] = MCF-7, 4 hr treatment, cell lysates, FIG. 6A
# [23] = 2 mM, nuclear lysates, antibody Peptide #2-G, FIG. 6B
structure (smiles),measurement,setting,value
"CN(N=O)C(=O)N[C@H]1C(O)O[C@H](CO)[C@@H](O)[C@@H]1O (mixture of isomers) [STZ, streptozotocin]",O-GlcNAcylated c-myc levels,[1]; [21],failed to increase
CNc1ncnc2c1ncn2[C@@H]1O[C@H](COP(=O)(O)O)[C@@H](O)[C@H]1O [N6-methyladenosine 5′-monophosphate],Levels of O-GlcNAcylated p53,[2],increased
same,O-GlcNAcylated c-myc levels,[3],failed to increase
same,O-GlcNAcylated c-myc levels,[1]; [22],failed to increase
same,O-GlcNAcylated c-myc levels,[1]; [21],failed to increase
CC(=O)Nc1nnc(S(N)(=O)=O)s1 [acetazolamide],Levels of O-GlcNAcylated p53,[2],increased
same,O-GlcNAcylated c-myc levels,[3],failed to increase
same,O-GlcNAcylated c-myc levels,[1]; [22],failed to increase
same,O-GlcNAcylated c-myc levels in nucleus,"[1]; MCF-7, 24 hr, 2 mM, data not shown",did not increase
O=C1CC2(CCCC2)CC(=O)N1CCCCN1CCN(c2ncccn2)CC1 [buspirone],O-GlcNAcylated c-myc level,[1]; [23],did not increase
CC(=O)N1CCN(c2ccc(OCC3COC(Cn4ccnc4)(c4ccc(Cl)cc4Cl)O3)cc2)CC1 (stereo not shown) [ketoconazole],Thr-58-O-GlcNAcylated c-myc expression,[4],failed to increase
same,unmodified c-myc protein,[5],no increase
same,proliferation of MCF-7 breast cancer cells,[6],inhibited
same,cell invasiveness,[7],partially inhibited
same,cell invasiveness,[7]; listed as Ketoconazole,slight loss of cell invasiveness
same,inhibition at 100 µM,"[8]; Homo sapiens, read-out: inhibition of migration in cell invasion assay",100%
same,cell invasiveness,[8],loss of cell invasiveness
same,cell invasiveness,[9],loss of cell invasiveness
same,inhibition at 100 µM,"[9]; Homo sapiens, HT-29, read-out: inhibition of migration in cell invasion assay",100%
same,increased cell death in MCF-7 cells higher than in MCF10A cells,[10],84%
same,O-GlcNAcylated c-myc level,[1]; [23],dramatically increased
same,O-GlcNAcylated c-myc level,"[1]; 2 mM, second antibody Peptide #1-G, FIG. 6C",dramatically increased
same,inhibition at 50 µM,[11],44.9%
same,inhibition at 50 µM,[12],60.2%
same,inhibition of cell proliferation,[13],failed to inhibit; also recorded: no significant differences
same,inhibition at 50 µM,[14],51.3%
same,inhibition at 50 µM,"[15]; Homo sapiens, SW480, 50 μM for 72 hr, MTT",63.3%
same,cell proliferation,"[15]; SW480, 100 μM",inhibited
same,cell proliferation,"[16]; HT29, 100 μM",inhibited
same,inhibition at 50 µM,"[16]; Homo sapiens, HT-29, HT29, 50 μM for 72 hr, MTT",67.4%
same,Percent of cells migrated toward a scratched field,[17]; 0 hr,0%
same,Percent of cells migrated toward a scratched field,[17]; 24 hr,27%
same,Percent of cells migrated toward a scratched field,[18]; 0 hr,0%
same,Percent of cells migrated toward a scratched field,[18]; 24 hr,8%
same,inhibition at 100 µM,"[19]; Homo sapiens, 24 and 48 hr, (36/46 × 100) and (43/55 × 100)",78%
same,% cells migrated toward a scratched field,[19]; 0 hr,0%
same,% cells migrated toward a scratched field,[19]; 24 hr,11.6%
same,% cells migrated toward a scratched field,"[19]; 24 hr, listed as Ketoconazole",10%
same,% cells migrated toward a scratched field,[19]; 48 hr,12%
same,inhibition of cell migration,[20],no significant differences
same,% cells migrated toward a scratched field,[20]; 0 hr,0%
same,% cells migrated toward a scratched field,[20]; 24 hr,6%
same,% cells migrated toward a scratched field,[20]; 48 hr,11%
